Laboratory results: PubChem BioAssay AID330 (DTP/NCI, 2004)
Values joined by “and” are separate entries in the source; they are usually repeats but may differ in a detail not shown here. Equal entries are not always repeated. Toxic doses and inconclusive results are not listed. The calls were made as follows: active = survival T/C of 150% or more; inactive = T/C below 125% in these data.

Test system: P388 leukemia ip, CD2F1 mice, survival T/C
Experiment: NCI In Vivo Anticancer Drug Screen. Data for tumor model P388 Leukemia (intraperitoneal) in CD2F1 (CDF1) mice
Settings: endpoint: median survival time, higher = longer survival
Method in brief: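 Mice carrying the transplanted tumor received test compound or vehicle. Survival was recorded in each group, and the value is the treated-group measurement divided by that of the vehicle-treated control group.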

[1] = dose: 50.0 mg/kg/injection, schedule: Q01DX005 (ip), vehicle: saline with Tween-80
[2] = dose: 100.0 mg/kg/injection, schedule: Q01DX005 (ip), vehicle: saline with Tween-80
[3] = dose: 60.0 mg/kg/injection, schedule: Q01DX005 (ip), vehicle: saline with Tween-80
[4] = dose: 120.0 mg/kg/injection, schedule: Q01DX005 (ip), vehicle: saline with Tween-80
[5] = dose: 100.0 mg/kg/injection, schedule: Q04DX002 (ip), vehicle: saline with Tween-80
[6] = dose: 50.0 mg/kg/injection, schedule: Q01DX005 (ip), vehicle: Klucel (hydroxypropylcellulose) (HPC)
[7] = dose: 100.0 mg/kg/injection, schedule: Q01DX005 (ip), vehicle: Klucel (hydroxypropylcellulose) (HPC)
[8] = dose: 200.0 mg/kg/injection, schedule: Q01DX005 (ip), vehicle: Klucel (hydroxypropylcellulose) (HPC)
[9] = dose: 50.0 mg/kg/injection, schedule: Q01DX005 (ip), vehicle: saline
[10] = dose: 100.0 mg/kg/injection, schedule: Q01DX005 (ip), vehicle: saline

Measured: T/C

Cc1noc(NCc2ccccc2)c1C
inactive: dose: 100.0 mg/kg/injection, schedule: Q04DX003 (ip), vehicle: saline with Tween-80 104 % of control | dose: 200.0 mg/kg/injection, schedule: Q04DX003 (ip), vehicle: saline with Tween-80 101 % of control | dose: 400.0 mg/kg/injection, schedule: Q04DX003 (ip), vehicle: saline with Tween-80 100 % of control

O=C(O)c1ccc(O)c(S)c1
inactive: dose: 100.0 mg/kg/injection, schedule: Q04DX003 (ip), vehicle: alcohol 106 % of control | dose: 200.0 mg/kg/injection, schedule: Q04DX003 (ip), vehicle: alcohol 101 % of control | dose: 400.0 mg/kg/injection, schedule: Q04DX003 (ip), vehicle: alcohol 105 % of control

COC1=C(OC)C(=O)C2=C(OCCO2)C1=O
inactive: dose: 25.0 mg/kg/injection, schedule: Q01DX001 (ip), vehicle: saline with Tween-80 109 % of control | dose: 50.0 mg/kg/injection, schedule: Q01DX001 (ip), vehicle: saline with Tween-80 106 % of control | dose: 100.0 mg/kg/injection, schedule: Q01DX001 (ip), vehicle: saline with Tween-80 107 % of control

CCOC(=O)Cc1csc(=S)n1-c1ccccc1
inactive: [1] 102 % of control | [2] 102 % of control | dose: 200.0 mg/kg/injection, schedule: Q01DX005 (ip), vehicle: saline with Tween-80 90 % of control

COC(=O)C(C)Oc1ccc(OC#N)cc1 (configuration not stated)
inactive: [3] 102 % of control | [4] 101 % of control | dose: 240.0 mg/kg/injection, schedule: Q01DX005 (ip), vehicle: saline with Tween-80 93 % of control

Cc1ccc(OS(=O)(=O)NC(=O)NCc2ccco2)cc1
inactive: dose: 50.0 mg/kg/injection, schedule: Q01DX009 (ip), vehicle: saline 92 % of control | dose: 100.0 mg/kg/injection, schedule: Q01DX009 (ip), vehicle: saline 101 % of control | dose: 200.0 mg/kg/injection, schedule: Q01DX009 (ip), vehicle: saline 105 % of control

CNCc1c(O)ccc2c(-c3ccccc3)cc(=O)oc12
inactive: [5] 100 % of control | dose: 200.0 mg/kg/injection, schedule: Q04DX002 (ip), vehicle: saline with Tween-80 101 % of control

C=CCN1CCCC1=O
inactive: dose: 100.0 mg/kg/injection, schedule: Q04DX003 (ip), vehicle: saline 100 % of control | dose: 200.0 mg/kg/injection, schedule: Q04DX003 (ip), vehicle: saline 100 % of control | dose: 400.0 mg/kg/injection, schedule: Q04DX003 (ip), vehicle: saline 95 % of control

C=C(C)C12CC(C)C34OC(CCCCCCCCC)(OC1C3C1OC1(CO)C(O)C1(O)C(=O)C(C)=CC14)O2 (configuration not stated)
inactive: dose: 3.0 micrograms/kg/injection, schedule: Q01DX009 (ip), vehicle: saline + alcohol 107 % of control | dose: 5.0 micrograms/kg/injection, schedule: Q01DX009 (ip), vehicle: saline + alcohol 109 % of control | dose: 10.0 micrograms/kg/injection, schedule: Q01DX009 (ip), vehicle: saline + alcohol 105 % of control | dose: 20.0 micrograms/kg/injection, schedule: Q01DX009 (ip), vehicle: saline + alcohol 109 % of control | dose: 40.0 micrograms/kg/injection, schedule: Q01DX009 (ip), vehicle: saline + alcohol 116 % of control

COc1ccc(/C=C/C(C)=N/NC(N)=S)cc1OC
inactive: dose: 12.5 mg/kg/injection, schedule: Q01DX005 (ip), vehicle: saline with Tween-80 104 % of control | dose: 25.0 mg/kg/injection, schedule: Q01DX005 (ip), vehicle: saline with Tween-80 106 % of control | [1] 105 % of control and 112 % of control | [2] 93 % of control

CC(C)=CCc1cc2c(cc1O)OC[C@H]1c3cc4c(cc3O[C@@H]21)OCO4
inactive: dose: 100.0 mg/kg/injection, schedule: Q01DX001 (ip), vehicle: Klucel (hydroxypropylcellulose) (HPC) 91 % of control | dose: 200.0 mg/kg/injection, schedule: Q01DX001 (ip), vehicle: Klucel (hydroxypropylcellulose) (HPC) 96 % of control | dose: 400.0 mg/kg/injection, schedule: Q01DX001 (ip), vehicle: Klucel (hydroxypropylcellulose) (HPC) 91 % of control

O=C1C(C(=Nc2ccccc2Cl)c2ccccc2)=C(O)c2ccccc21
inactive: dose: 25.0 mg/kg/injection, schedule: Q04DX002 (ip), vehicle: saline with Tween-80 99 % of control | dose: 50.0 mg/kg/injection, schedule: Q04DX002 (ip), vehicle: saline with Tween-80 92 % of control | [5] 93 % of control

CCN(CC)C1=Nc2ccccc2N(c2ccccc2)C(SC)=C1
inactive: [6] 111 % of control | [7] 100 % of control | [8] 97 % of control

COc1ccc2nc(C)cc(N/N=C/c3cccnc3)c2c1
inactive: dose: 6.25 mg/kg/injection, schedule: Q01DX009 (ip), vehicle: Klucel (hydroxypropylcellulose) (HPC) 101 % of control | dose: 12.5 mg/kg/injection, schedule: Q01DX009 (ip), vehicle: Klucel (hydroxypropylcellulose) (HPC) 104 % of control | dose: 25.0 mg/kg/injection, schedule: Q01DX009 (ip), vehicle: Klucel (hydroxypropylcellulose) (HPC) 113 % of control

CC1CC=[N+]([O-])C1(C)C (configuration not stated)
inactive: dose: 12.5 mg/kg/injection, schedule: Q01DX009 (ip), vehicle: saline with Tween-80 95 % of control | dose: 25.0 mg/kg/injection, schedule: Q01DX009 (ip), vehicle: saline with Tween-80 102 % of control | dose: 50.0 mg/kg/injection, schedule: Q01DX009 (ip), vehicle: saline with Tween-80 102 % of control and 86 % of control

CC[C@@]1(C(N)=O)CC2C=CC1C2 (some centres not stated)
inactive: [6] 94 % of control | [7] 90 % of control | [8] 96 % of control

CCCCCCCCCCCCCC(CCCC)CCCCCCCC (configuration not stated)
inactive: dose: 37.5 mg/kg/injection, schedule: Q01DX001 (ip), vehicle: saline sonified 104 % of control | dose: 75.0 mg/kg/injection, schedule: Q01DX001 (ip), vehicle: saline sonified 100 % of control | dose: 150.0 mg/kg/injection, schedule: Q01DX001 (ip), vehicle: saline sonified 100 % of control

CC(Cc1ccccc1)N(C)C(=O)c1ccc[n+](C)c1 (configuration not stated)
inactive: [9] 107 % of control | [10] 109 % of control

ClC(c1ccccc1)C1(Cl)C=c2ccccc2=C1 (configuration not stated)
inactive: dose: 100.0 mg/kg/injection, schedule: Q01DX009 (ip), vehicle: Klucel (hydroxypropylcellulose) (HPC) 109 % of control | dose: 100.0 mg/kg/injection, schedule: Q04DX003 (ip), vehicle: Klucel (hydroxypropylcellulose) (HPC) 100 % of control | dose: 200.0 mg/kg/injection, schedule: Q01DX009 (ip), vehicle: Klucel (hydroxypropylcellulose) (HPC) 109 % of control | dose: 200.0 mg/kg/injection, schedule: Q04DX003 (ip), vehicle: Klucel (hydroxypropylcellulose) (HPC) 104 % of control | dose: 400.0 mg/kg/injection, schedule: Q01DX009 (ip), vehicle: Klucel (hydroxypropylcellulose) (HPC) 113 % of control | dose: 400.0 mg/kg/injection, schedule: Q04DX003 (ip), vehicle: Klucel (hydroxypropylcellulose) (HPC) 109 % of control

N#Cc1ccc(NN=NCCCl)cc1
inactive: dose: 12.5 mg/kg/injection, schedule: Q01DX009 (ip), vehicle: distilled water + Tween-80 114 % of control | dose: 12.5 mg/kg/injection, schedule: Q01DX009 (ip), vehicle: distilled water + alcohol 95 % of control | dose: 25.0 mg/kg/injection, schedule: Q01DX009 (ip), vehicle: distilled water + alcohol 91 % of control | dose: 50.0 mg/kg/injection, schedule: Q01DX009 (ip), vehicle: distilled water + alcohol 97 % of control | dose: 100.0 mg/kg/injection, schedule: Q01DX009 (ip), vehicle: distilled water + Tween-80 87 % of control | dose: 100.0 mg/kg/injection, schedule: Q01DX009 (ip), vehicle: distilled water + alcohol 88 % of control

OCCCOCCCO
inactive: [9] 109 % of control | [10] 101 % of control | dose: 200.0 mg/kg/injection, schedule: Q01DX005 (ip), vehicle: saline 114 % of control

O=C(Nc1cccc([N+](=O)[O-])c1)OCc1ccc2c(c1)OCO2
inactive: [3] 91 % of control | [4] 90 % of control
